In patent US7354739B2, “TML polynucleotides” (ZymoGenetics, Inc., priority 1997, dated 2008):

Assays:
[1] = test system: antral portion of the stomach; assay: Antral stomach contractions monitored by transducing crystals in anesthetized rats; format: in vivo, Sprague-Dawley rats
From the text: Two male Sprague-Dawley rats, approximately 12 weeks old (Harlan, Indianapolis, Ind.) were anesthetized with urethane and their stomachs were exposed through a small abdominal incision. Two 2.4 mm transducing crystals (Sonometrics, Ontario, Canada) were placed on the antral portion of the stomach such that circular contractions could be monitored as a change in the distance between the two crystals. The crystals were attached with VETBOND TISSUE ADHESIVE (3M, St. Paul, Minn.).
The amplitude of the NE-induced decrease was approximately 50% of the acetylcholine-induced increase in distance. Both responses were transient.
A negative control of 10 μl of phosphate buffer solution (PBS) applied topically between the crystals had no effect.
A 14 amino acid zsig33 peptide (from amino acid residue 24 (Gly) to amino acid residue 37 (Gln) of SEQ ID NO: 2) was dissolved in PBS) and 10 μl was applied topically for a final concentration of 1 μg, […]

[2] = test system: post-prandial glucose absorption; assay: Oral glucose challenge after oral zsig33 peptide in ob/ob mice; format: in vivo; details: 100 μg orally, 30 minutes prior to an oral glucose challenge
Description: Eight female ob/ob mice, approximately 6 weeks old (Jackson Labs, Bar Harbor, Me.) were adapted to a 4 hour daily feeding schedule for two weeks. After two weeks on the feeding schedule, the mice were give 100 μg of a 14 amino acid amino zsig33 peptide (from amino acid residue 24 (Gly) to amino acid residue 37 (Gln) of SEQ ID NO: 2) in 100 μl sterile 0.1% BSA by oral gavage, immediately after their eating period (post-prandially). Thirty minutes later, the mice were challenged orally with a 0.5 ml volume of 25% glucose. Retroorbital bleeds were done to determine serum glucose levels. Blood was drawn prior to zsig33 dosing, prior to oral glucose challenge, and at 1, 2, 4, and 20 hours following the glucose challenge.

[3] = test system: stomach; assay: Transit of phenol red through the stomach (gastric emptying) of fasted rats; format: in vivo, Sprague-Dawley rats; details: 1 μg applied topically to the stomach; 30 minutes after gavage; compared to a scrambled peptide
Description: The effect of topically applied zsig33 peptide (amino acid 24 to 37 of SEQ ID NO: 2) on the transit of phenol red through the stomachs of fasted male Sprague-Dawley rats (Harlan, Indianapolis, Ind.) was evaluated. The rats (6 animals, 8 weeks old) were fasted 24 hrs prior to being anesthetized with urethane(0.5 ml/100 grams of 25% solution). After anesthetizing, the animals were orally gavaged with 1 ml of Phenol Red solution (50 mg/ml in 2% methylcellulose solution). The stomach of each animal was exposed through a small abdominal incision and either 1 μg zsig33 peptide or a 14 amino acid control of a scrambled sequence peptide was applied topically to the stomach five minutes following the gavage. The amount of Phenol Red remaining in the stomach was determined by measuring optical density of the extracted stomach contents 30 minutes after the gavage.

[4] = Fourteen-day twice-daily oral dosing in ob/ob mice: body weight, food intake, glucose clearance; format: in vivo; details: 1 μg/mouse orally twice daily for fourteen days
Description: Sixteen female ob/ob mice, 8 weeks old, (Jackson Labs, Bar Harbor, Me.) were adapted to a special 4 hour daily feeding schedule for two weeks. The were fed ad libitum from 7:30-11:30 am daily. After two weeks on the feeding schedule, the mice were divided into two groups of 8. One group was given 1.0 μg/mouse of zsig33-1 (14 amino acid peptide) and the other vehicle (a 14 amino acid scrambled sequence peptide) in 100 μl sterile 0.1% BSQA by oral gavage just prior to receiving food, and at the end of the 4 hour feeding period. The mice were […] twice daily for fourteen days, during which time food intake and body weight was measured daily. On day 14, immediately after the second oral gavage of the zsig33-1 peptide, the mice were challenged orally with an 0.5 ml volume of 25% glucose. Retro-orbital bleeds were done to determine serum glucose levels immediately prior to administration of the zsig33-1 peptide or vehicle ([…].), and also at 0, 1, 2, and 4 hours following the glucose challenge.

NC[C@H](O)c1ccc(O)c(O)c1 [norepinephrine, reference compound]
amplitude of the NE-induced decrease relative to the acetylcholine-induced increase in distance ([1]; 10 μl of 1 μM applied topically): approximately 50%
change in the distance between the two crystals ([1]; 10 μl of 1 μM applied topically to the stomach between the crystals): reduction in the distance between the two crystals

zsig33-1: peptide corresponding to amino acid residue 24 (Gly) to residue 37 (Gln) of SEQ ID NO: 2; residues 1 to 14 of SEQ ID NO:11 (GSSFLSPEHQRVQQRKES; listed as Homo sapiens)
post-prandial glucose absorption (serum glucose) [2]: enhanced post-prandial glucose absorption
reduction of the amount of Phenol Red remaining in the stomach [3]: approximately 25%
change in crystal distance ([1]; 1 μg in 10 μl PBS applied topically): sustained, rhythmic increase and decrease in crystal distance
rate and amplitude of the contractions (dose dependence) ([1]; 10 μg and 100 μg applied topically, compared with 1 μg): enhanced responses in both rate and amplitude
daily body weight [4]: no affect
food intake [4]: no affect
